Assay results from patent publication US20100022559A1, “BISOXIMES AS FUNGICIDES” (BAYER CROPSCIENCE AG, priority 2006, published 2010).

assay: logP determination by HPLC on a reversed-phase column (C 18), EEC Directive 79/831 Annex V.A8; format: physicochemical; conditions: method marked [a] in Table 1
Experimental: The stated logP values were determined in accordance with EEC Directive 79/831 Annex V.A8 by HPLC (high performance liquid chromatography) on a reversed-phase column (C 18). Temperature: 43° C.

logP | Compound
2.10^[a] | CC(=NOCC(C)(C)CON=C(C)c1nc2ccccc2[nH]1)c1nc2ccccc2[nH]1 [Compound 573]
6.04^[a] | CC(=NOCC(C)(C)CON=C(C)c1ccc2c(n1)CCCCC2)c1ccc2c(n1)CCCCC2 [Compound 592]
4.53^[a] | Cc1cccc(C(=NOCC2(CON=C(c3cccc(C)n3)C3CC3)CC(c3ccc(Cl)cc3)=NO2)C2CC2)n1 (stereo not shown) [compound 649]
7.36^[a] | CC(=NOCC(C)(C)CON=C(C)c1cccc(-c2ccc(C(C)(C)C)cc2)n1)c1cccc(-c2ccc(C(C)(C)C)cc2)n1 [compound 580]

same assay, conditions: method marked [b] in Table 1

Compound | logP
C=Cc1cccc(C(C)=NOCC(C)CON=C(C)c2cccc(C=C)n2)n1 (stereo not shown) [compound 685] | 6.6^[b]
CC(=NOCCC(C)ON=C(C)c1nc(C)ccc1C)c1nc(C)ccc1C (single isomer, unassigned) [compound 759] | 3.12^[b]
CC(=NOCCCCCCON=C(C)c1sc(C)nc1C)c1cccc(C)n1 (single isomer, unassigned) [compound 543] | 4.74^[b] (isomer B)
CC(=NOCCC(C)CCON=C(C)c1ccccn1)c1ccccn1 (stereo not shown) [compound 747] | 4.43^[b]

Now from value to molecule:

logP | Compound
4.41^[b] | C=C(CON=C(Br)c1cccc(C)n1)CON=C(Br)c1cccc(C)n1 [compound 746]
5.08^[b] | CCCC(=NOCC1(CON=C(CCC)c2cccc(C)n2)CC(CC)=NO1)c1cccc(C)n1 (stereo not shown) [compound 617]
2.51^[b] | CCC1=NOC(CON=C(C)c2ccc(C)c(C)n2)(CON=C(C)c2ccc(C)c(C)n2)C1 (stereo not shown) [compound 628]
3.89^[b] | CC(=NOCC1(CON=C(C)c2cccc(C)n2)CC(CC(C)C)=NO1)c1cccc(C)n1 (stereo not shown) [compound 599]
5.21^[b] | CCC(=NOCC1(CON=C(CC)c2cccc(C)n2)CC(CC(C)C)=NO1)c1cccc(C)n1 (stereo not shown) [compound 609]

same assay, conditions: method marked [c] in Table 1

logP | Compound
5.02^[c] | CC(=NOCCC(C)ON=C(C)c1nc(C)ccc1C)c1nc(C)ccc1C (single isomer, unassigned) [compound 759]

same assay, conditions: method marker [a] (footnote not shown); isomer A / isomer B / isomer mixture as noted in the cell

logP | Compound
1.65^[a] | CC(=NOCCCON=C(C)c1cc(C)cc(C)n1)c1cc(C)cc(C)n1 [Compound 224]
3.65^[a] (isomer B) | CCC(=NOCCCON=C(CC)c1ncccc1C)c1ncccc1C (single isomer, unassigned) [compound 94]
2.98^[a] | CCc1ccnc(C(C)=NOCCCON=C(C)c2cc(CC)ccn2)c1 [Compound 136]
3.77^[a] | CCC(=NOCCON=C(CC)c1cccc(C)n1)c1cccc(C)n1 (mixture of isomers) [compound 222]

same assay, conditions: method marker [b]; isomer A / isomer B / isomer mixture as noted in the cell

Compound | logP
C=C(CON=C(C)c1cccc(C)n1)CON=C(C)c1ncc(C(F)(F)F)cc1Cl (single isomer, unassigned) [compound 157] | 4.42^[b] (isomer A)
C=C(CON=C(C)c1nc(C)cc(OC)n1)CON=C(C)c1nc(C)cc(OC)n1 [compound 64] | 3.17^[b]
C=C(CON=C(C)c1cccc(C)n1)CON=C(N)c1nc(C)cc(OC)n1 [Compound 186] | 2.11^[b]
CC(=NOCCCCON=C(C)c1nc(C)c(C)s1)c1nc(C)c(C)s1 [compound 125] | 5.59^[b]
C=C(CON=C(C)c1nc(C)c(C)s1)CON=C(C)c1nc(C)c(C)s1 (single isomer, unassigned) [compound 69] | 4.99^[b] (isomer A)
C=C(CO/N=C(\N)c1nc(C)c(Cl)c(C)n1)CO/N=C(\N)c1nc(C)c(Cl)c(C)n1 [compound 46] | 2.84^[b]

Second part, the molecule after the results:

logP | Compound
2.20^[b] | CC(=NOCC(=O)CON=C(C)c1cccc(C)n1)c1cccc(C)n1 [compound 71]
3.17^[b] | C=C(CON=C(C)c1cccc(C)n1)CON=C(C)c1nccc(OCC)n1 [compound 249]
4.37^[b] | C=C(CON=C(C)c1cccc(C)n1)CON=C(C)c1cccn1C [compound 197]
3.84^[b] (isomer )B | C=C(CON=C(C)c1cccc(C)n1)CON=C(CC)c1ncccc1C (single isomer, unassigned) [compound 142]
4.98^[b] | C=C(CON=C(C)c1cccc(C)n1)CON=C(C)c1cccc(Br)n1 [Compound 206]

same assay, conditions: reversed-phase HPLC column (C 18); HCO2H; HPLC reversed-phase column (C 18), 43° C.; read-out: logP (HCO2H)

chromatographic logP | Compound
2.68 | CCC1=NOC(CO/N=C(\C)c2cccc(C)n2)(CO/N=C(\C)c2cccc(C)n2)C1 [(1E,1′E)-1-(6-methylpyridin-2-yl)ethanone O,O′-[(3-ethyl-4,5-dihydroisoxazole-5,5-diyl)bis(methylene)]oxime]

same assay, conditions: value marked [a]

Compound | logP
CC(=NOCC(C)CON=C(C)c1cccc(C2CC2)n1)c1cccc(C2CC2)n1 (stereo not shown) [compound 815] | 7.36^[a]
CC(=NOC1CCC(ON=C(C)c2cc(C)cc(C)n2)C1)c1cc(C)cc(C)n1 (mixture of isomers) [compound 796] | 2.55^[a]
COc1cc(C)nc(C(C)=NOCC(C)(C)CON=C(C)c2cc(OC)cc(C)n2)c1 [Compound 840] | 1.5^[a]

Other lines, results leading:

logP | Compound
3.99^[a] | CC(=NOCC1(CON=C(C)c2ccc(C)c(C)n2)CC1)c1cccc(C)n1 [Compound 786]
4.60^[a] | CC(=NOC1CCC(ON=C(C)c2cccc(C)n2)C1)c1cccc(C)n1 (mixture of isomers) [compound 797]

same assay, conditions: value marked [b]

Compound | logP
C=C(CON=C(C)c1ccccc1)CON=C(C)c1cccc(C)n1 [compound 408] | 4.51^[b]
CC(=NOCC(C)(C)CON=C(CC(C)C)c1ncccc1C)c1cccc(C)n1 [compound 366] | 5.97^[b]
CC(=NOCCCCCCON=C(C)c1cccc(C)n1)c1ccc2c(c1)OCO2 [compound 390] | 5.42^[b]
COc1ccc(C(C)=NOCC(C)(C)CON=C(C)c2cc3ccccc3o2)cc1OC [compound 415] | 5.42^[b]
CC(=NOCC1(CON=C(C)c2nc(C)ccc2C)CC1)c1nc(C)ccc1C (single isomer, unassigned) [compound 765] | 3.15^[b]
CC(=NOC/C=C/CON=C(C)c1ccccn1)c1ccccn1 [compound 781] | 2.84^[b]
CC(=NOCCCCCCON=C(C)c1cnnc(C)n1)c1cccc(C)n1 [compound 344] | 4.15^[b]

The next lines start with the values.

logP | Compound
2.20^[b] | C=C(CON=C(C)c1cncc(C)c1)CON=C(C)c1cccc(C)n1 [compound 361]
3.99^[b] | CC(=NOCC1(CON=C(C)c2ccc(C)c(C)n2)CC1)c1cccc(C)n1 [Compound 786]
5.48^[b] | C=C(CON=C(C)c1ccc2ccccc2c1)CON=C(C)c1cccc(C)n1 [compound 472]
4.57^[b] | C=C(CON=C(C)c1cccc(C)n1)CON=C(C)c1cc2ccccc2o1 [compound 404]
2.89^[b] | CC(=NOC/C=C/CON=C(C)c1cccc(C)n1)c1cccc(C)n1 [Compound 777]
4.46^[b] | C=C(CON=C(C)c1cccc(OC)c1)CON=C(C)c1cccc(C)n1 [compound 470]
5.78^[b] | CCc1cccc(C(C)=NOCC(C)(C)CON=C(C)c2cccc(C)n2)n1 [Compound 370]
5.84^[b] | CC(=NOCC(C)CON=C(C)c1cccc(C)n1)c1ccc2ccccc2c1 (stereo not shown) [compound 497]
4.30^[b] | C=C(CON=C(C)c1cccc(C)n1)CON=C(CC)c1cccc(C)n1 [compound 358]
6.86^[b] | CC(=NOCCCCCCON=C(C)c1cccc(Cc2ccccc2)n1)c1cccc(C)n1 [compound 340]
4.06^[b] | CCOC(=O)C(C)(CON=C(C)c1cccc(C)n1)CON=C(C)c1cccc(C)n1 (stereo not shown) [compound 853]
4.35^[b] | CC(=NOCCCCON=C(C)c1cccc(C)n1)c1ccc2c(c1)OCO2 [compound 378]

same assay, conditions: value marked [c]

Compound | logP
CC(=NOCC1(CON=C(C)c2nc(C)ccc2C)CC1)c1nc(C)ccc1C (single isomer, unassigned) [compound 765] | 4.95^[c]
COc1cc(C)nc(C(C)=NOCC(C)(C)CON=C(C)c2cc(OC)cc(C)n2)c1 [Compound 840] | 5.79^[c]

The next lines start with the values.

logP | Compound
5.70^[c] | CC(=NOCC1(CON=C(C)c2ccc(C)c(C)n2)CC1)c1cccc(C)n1 [Compound 786]
5.00^[c] | CCOC(=O)C(C)(CON=C(C)c1cccc(C)n1)CON=C(C)c1cccc(C)n1 (stereo not shown) [compound 853]
